Reference: ChEMBL document CHEMBL1201862, “PubChem BioAssay data set” (2004)
Blank lines part the entries; values can stand above or below the molecule they belong to. Calls of active or inactive are those of the source.

Columns and labels:
[1] = target: Protein Rev (Human immunodeficiency virus type 1 group M subtype B (isolate HXB2)(HIV-1), UniProt P04618); test: blockers of HIV Rev/RRE RNA complex – biochemical, fluorescence polarization, HIV-1, dose response (AID 434976); design: species or system Human immunodeficiency virus 1
[2] = target: T1, Polyadenylate-binding protein 1 (Homo sapiens, UniProt P11940); test: MLLE binding blockers, Cy5 peptide tracer – biochemical, fluorescence polarization, Cy5-PAM2 peptide, secondary, miRNA deadenylation inhibitor project, dose response (AID 602260); type: functional; conditions: read-out: IC50_Mean
[3] = target: Female germline-specific tumor suppressor gld-1 (Caenorhabditis elegans, UniProt Q17339); test: blockers of GLD-1/TGE RNA complex formation – biochemical, fluorescence polarization, C. elegans, dose response (AID 2802);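 note: fluorescence polarization of labeled TGE RNA bound by purified gld-1 protein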
[4] = target: T1, Polyadenylate-binding protein 1; test: MLLE domain peptide-binding blockers, IC50 – biochemical, fluorescence polarization, FITC-PAM2 peptide, dose response (AID 602259); type: functional; conditions: read-out: IC50_Mean
[5] = target: Melanin-concentrating hormone receptor 1 (Homo sapiens, UniProt Q99705); test: Late-stage fluorescence-based counterscreen for antagonists of the G-protein coupled receptor 7 (GPR7): cell-based dose response assay to identify antagonists of the melanin-concentrating hormone receptor 1 (MCHR1). [Related pubchem assays (depositor defined):AID1861, AID1880, AID1952, AID2148, AID2251, AID2257, AID485339]; type: functional;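 note: stimulated with 30 nM MCH peptide agonist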
[6] = viability of HCT116 lacking mutant beta-catenin – cell-based, human colon tumor, dose response (AID 1045); type: functional;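 note: HCT116 colon tumor cells with beta catenin knocked out; cells exposed to compound for 60 hours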
[7] = viability of PTEN-deleted HCT116 cells – cell-based, HCT116 PTEN knockout, dose response (AID 1047); type: functional;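 note: HCT116 colon tumor cells with PTEN knocked out; cells exposed to compound for 60 hours before readout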
[8] = target: T2, Heat shock factor protein 1 (Mus musculus, UniProt P38532); test: enhancement of HSF1-driven luciferase signal – cell-based, NIH3T3, luminescence, dose retest, confirmation (AID 435004); type: functional;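 note: stress induced by proteasome inhibitor MG132 added 30 min after compound; luciferase reporter driven by HSF1 response element in NIH3T3 cells; actives raise luminescence as potentiators of the MG132 stress response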
T2 sequence (P38532 whole entry): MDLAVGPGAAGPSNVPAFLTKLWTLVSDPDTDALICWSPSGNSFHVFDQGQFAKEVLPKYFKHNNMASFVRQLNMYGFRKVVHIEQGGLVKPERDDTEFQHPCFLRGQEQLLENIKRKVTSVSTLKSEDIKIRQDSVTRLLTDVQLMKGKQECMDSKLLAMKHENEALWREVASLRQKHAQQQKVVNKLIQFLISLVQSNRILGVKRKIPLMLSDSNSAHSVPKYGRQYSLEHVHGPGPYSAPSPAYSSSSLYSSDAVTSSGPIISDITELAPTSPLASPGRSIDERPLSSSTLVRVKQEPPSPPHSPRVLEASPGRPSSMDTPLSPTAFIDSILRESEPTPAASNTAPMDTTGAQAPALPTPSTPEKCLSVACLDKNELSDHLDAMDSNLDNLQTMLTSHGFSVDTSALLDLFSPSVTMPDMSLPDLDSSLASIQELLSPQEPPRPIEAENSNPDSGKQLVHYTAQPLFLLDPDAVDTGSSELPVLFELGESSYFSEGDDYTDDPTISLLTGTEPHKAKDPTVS

[9] = HEK-293T cell viability reduction – luminescence, B-cell screen hits, cytotoxicity control for BCR NF-kB inhibitor project, dose response (AID 489021); type: functional, cell-based;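 note: HEK-293T cells carrying an NF-kB luciferase reporter; cells exposed to compound for about 14 hours before viability readout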
[10] = target: Large T antigen (Simian virus 40, UniProt P03070); type: functional, Betapolyomavirus macacae;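 note: Confirmatory-stage PubChem screen for compounds that inhibit SV40 T antigen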
[11] = target: Aspartyl aminopeptidase (Plasmodium falciparum 3D7, UniProt Q8I2J3)
[12] = target: T3, Zinc finger protein mex-5 (Caenorhabditis elegans, UniProt Q9XUB2); test: potency of MEX-5 RNA-binding blockers – biochemical, C. elegans, fluorescence polarization, dose response (AID 1960)
T3 sequence (Q9XUB2 whole entry): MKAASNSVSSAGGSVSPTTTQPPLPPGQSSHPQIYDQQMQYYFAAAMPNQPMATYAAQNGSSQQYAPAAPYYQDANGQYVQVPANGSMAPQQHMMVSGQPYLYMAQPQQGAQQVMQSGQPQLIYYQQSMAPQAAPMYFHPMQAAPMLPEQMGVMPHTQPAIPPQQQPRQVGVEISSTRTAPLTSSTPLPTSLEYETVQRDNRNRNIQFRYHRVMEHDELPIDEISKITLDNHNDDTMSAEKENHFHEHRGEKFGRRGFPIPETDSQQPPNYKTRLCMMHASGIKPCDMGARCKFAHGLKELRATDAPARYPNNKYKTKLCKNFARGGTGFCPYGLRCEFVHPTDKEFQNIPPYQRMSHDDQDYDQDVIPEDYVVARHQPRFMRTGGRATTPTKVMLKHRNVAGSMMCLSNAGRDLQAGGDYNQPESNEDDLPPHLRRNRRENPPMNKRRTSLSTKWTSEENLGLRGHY

[13] = cells; type: functional, cell-based
[14] = target: FAD-linked sulfhydryl oxidase ALR (Homo sapiens, UniProt P55789); test: ALR-catalysed DTT oxidation blockers – biochemical, H2O2 detection, luminescence, cherry-pick, dose response (AID 493248)
[15] = target: T4, RNA-binding protein pos-1 (Caenorhabditis elegans, UniProt G5EF15); test: disruptors of C. elegans POS-1 RNA interaction – biochemical, fluorescence polarization, dose response (AID 1964);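 note: purified POS-1 fused to maltose binding protein made in E. coli; potency of compounds blocking POS-1 binding to fluorescent RNA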
T4 sequence (G5EF15 whole entry): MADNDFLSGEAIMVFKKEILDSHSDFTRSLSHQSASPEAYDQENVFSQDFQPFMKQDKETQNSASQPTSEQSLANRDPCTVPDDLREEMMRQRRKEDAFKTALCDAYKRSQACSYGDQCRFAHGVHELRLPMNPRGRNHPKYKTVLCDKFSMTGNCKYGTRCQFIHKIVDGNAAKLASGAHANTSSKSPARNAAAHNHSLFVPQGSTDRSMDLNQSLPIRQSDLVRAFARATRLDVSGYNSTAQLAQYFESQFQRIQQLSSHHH

[16] = target: Procathepsin L (Homo sapiens, UniProt P07711)
[17] = cells; type: functional, cell-based; remark: listed apart in the source
[18] = system: CHO; test: CHO cell viability loss, potency – luminescence, cytotoxicity control for TLR9-MyD88 binding inhibitor project, dose response (AID 588339); type: functional, cell-based, hamster; conditions: Cricetulus griseus;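 note: CHO cells stably coexpressing TLR9 and MyD88 fusions from primary screen; compound exposure lasted 48 hours before viability readout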
[19] = target: Beta Lactamase (Pseudomonas aeruginosa, UniProt Q932Y6); test: BLA reporter interference, concentration series – BLA reporter cells, FRET fluorescence, artefact control for TLR9-MyD88 binding inhibitor project, dose response (AID 588341); type: cell-based;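 note: cell based assay in CHO-K1 cells stably expressing beta-lactamase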
Beta Lactamase, sequence (Q932Y6 whole entry): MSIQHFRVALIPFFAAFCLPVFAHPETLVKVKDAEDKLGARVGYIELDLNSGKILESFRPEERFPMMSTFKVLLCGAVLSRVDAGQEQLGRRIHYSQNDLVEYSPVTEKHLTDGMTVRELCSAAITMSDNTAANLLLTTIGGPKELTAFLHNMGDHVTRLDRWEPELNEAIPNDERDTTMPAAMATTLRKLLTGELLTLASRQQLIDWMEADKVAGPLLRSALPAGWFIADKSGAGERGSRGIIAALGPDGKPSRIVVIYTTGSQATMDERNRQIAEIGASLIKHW

T1 sequence (P11940 whole entry): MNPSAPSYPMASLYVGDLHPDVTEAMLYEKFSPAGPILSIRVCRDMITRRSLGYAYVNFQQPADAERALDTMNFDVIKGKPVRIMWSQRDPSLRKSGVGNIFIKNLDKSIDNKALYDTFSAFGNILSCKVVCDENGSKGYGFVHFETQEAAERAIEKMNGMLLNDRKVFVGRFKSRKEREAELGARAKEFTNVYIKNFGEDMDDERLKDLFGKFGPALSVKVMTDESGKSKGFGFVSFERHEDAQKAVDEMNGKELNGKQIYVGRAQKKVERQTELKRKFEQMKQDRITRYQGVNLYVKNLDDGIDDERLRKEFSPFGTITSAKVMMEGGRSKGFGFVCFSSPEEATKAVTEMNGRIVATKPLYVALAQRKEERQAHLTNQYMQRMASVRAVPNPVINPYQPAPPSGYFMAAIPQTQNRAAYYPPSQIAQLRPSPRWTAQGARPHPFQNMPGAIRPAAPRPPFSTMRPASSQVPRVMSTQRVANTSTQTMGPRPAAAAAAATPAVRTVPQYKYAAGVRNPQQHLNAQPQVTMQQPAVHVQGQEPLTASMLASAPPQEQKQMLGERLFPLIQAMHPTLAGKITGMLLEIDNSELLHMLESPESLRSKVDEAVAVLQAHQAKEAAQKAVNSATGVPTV
Protein Rev, sequence (P04618 whole entry): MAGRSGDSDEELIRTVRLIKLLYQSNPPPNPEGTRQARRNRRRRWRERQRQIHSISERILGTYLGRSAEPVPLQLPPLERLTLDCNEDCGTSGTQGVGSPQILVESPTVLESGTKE
Female germline-specific tumor suppressor gld-1, sequence (Q17339 whole entry, the tested form may be a part): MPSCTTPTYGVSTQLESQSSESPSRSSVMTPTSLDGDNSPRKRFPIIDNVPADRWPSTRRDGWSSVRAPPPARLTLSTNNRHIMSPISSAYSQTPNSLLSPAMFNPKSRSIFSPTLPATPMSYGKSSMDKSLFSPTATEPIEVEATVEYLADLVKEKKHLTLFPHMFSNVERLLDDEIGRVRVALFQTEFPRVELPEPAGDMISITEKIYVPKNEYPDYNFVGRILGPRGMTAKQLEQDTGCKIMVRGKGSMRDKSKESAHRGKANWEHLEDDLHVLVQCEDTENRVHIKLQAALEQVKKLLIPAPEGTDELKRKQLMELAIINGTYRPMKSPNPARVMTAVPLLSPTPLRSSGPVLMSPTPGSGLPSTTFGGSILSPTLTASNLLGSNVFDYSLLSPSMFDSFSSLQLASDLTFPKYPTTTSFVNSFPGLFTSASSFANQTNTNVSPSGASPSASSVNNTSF
Large T antigen, sequence (P03070 whole entry): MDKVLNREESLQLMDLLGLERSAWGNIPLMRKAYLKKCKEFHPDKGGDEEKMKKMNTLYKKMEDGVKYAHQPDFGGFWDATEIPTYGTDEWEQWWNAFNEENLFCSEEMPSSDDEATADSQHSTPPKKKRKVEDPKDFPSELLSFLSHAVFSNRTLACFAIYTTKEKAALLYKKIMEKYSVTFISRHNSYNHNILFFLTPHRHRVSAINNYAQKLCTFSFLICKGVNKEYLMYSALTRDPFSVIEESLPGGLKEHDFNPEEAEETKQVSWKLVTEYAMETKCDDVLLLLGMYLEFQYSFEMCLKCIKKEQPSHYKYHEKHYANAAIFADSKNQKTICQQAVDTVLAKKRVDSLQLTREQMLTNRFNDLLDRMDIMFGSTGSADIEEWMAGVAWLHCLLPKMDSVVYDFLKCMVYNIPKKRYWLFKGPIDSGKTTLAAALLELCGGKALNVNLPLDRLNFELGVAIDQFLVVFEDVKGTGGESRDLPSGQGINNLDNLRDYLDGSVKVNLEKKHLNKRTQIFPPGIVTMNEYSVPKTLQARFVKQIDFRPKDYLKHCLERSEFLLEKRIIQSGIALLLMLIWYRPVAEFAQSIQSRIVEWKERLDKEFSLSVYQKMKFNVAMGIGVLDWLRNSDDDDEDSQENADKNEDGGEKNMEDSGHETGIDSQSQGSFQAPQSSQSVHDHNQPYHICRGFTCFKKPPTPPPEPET
Melanin-concentrating hormone receptor 1, sequence (Q99705 whole entry): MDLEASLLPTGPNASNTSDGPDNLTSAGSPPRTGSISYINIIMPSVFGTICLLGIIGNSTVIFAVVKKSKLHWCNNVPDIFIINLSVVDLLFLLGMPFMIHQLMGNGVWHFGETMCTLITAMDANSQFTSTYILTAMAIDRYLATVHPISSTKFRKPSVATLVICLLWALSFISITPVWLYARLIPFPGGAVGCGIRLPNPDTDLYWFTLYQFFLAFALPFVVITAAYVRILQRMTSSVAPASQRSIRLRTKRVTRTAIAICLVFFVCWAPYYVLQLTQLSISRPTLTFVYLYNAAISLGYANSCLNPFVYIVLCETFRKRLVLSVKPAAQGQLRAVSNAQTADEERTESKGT
FAD-linked sulfhydryl oxidase ALR, sequence (P55789 whole entry, the tested form may be a part): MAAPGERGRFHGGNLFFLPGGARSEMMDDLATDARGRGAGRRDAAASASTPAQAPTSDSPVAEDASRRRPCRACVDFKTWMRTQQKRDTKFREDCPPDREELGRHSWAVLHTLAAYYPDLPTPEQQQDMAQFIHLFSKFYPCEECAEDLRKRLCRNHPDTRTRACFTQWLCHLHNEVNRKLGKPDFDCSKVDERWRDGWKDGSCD
Procathepsin L, sequence (P07711 whole entry): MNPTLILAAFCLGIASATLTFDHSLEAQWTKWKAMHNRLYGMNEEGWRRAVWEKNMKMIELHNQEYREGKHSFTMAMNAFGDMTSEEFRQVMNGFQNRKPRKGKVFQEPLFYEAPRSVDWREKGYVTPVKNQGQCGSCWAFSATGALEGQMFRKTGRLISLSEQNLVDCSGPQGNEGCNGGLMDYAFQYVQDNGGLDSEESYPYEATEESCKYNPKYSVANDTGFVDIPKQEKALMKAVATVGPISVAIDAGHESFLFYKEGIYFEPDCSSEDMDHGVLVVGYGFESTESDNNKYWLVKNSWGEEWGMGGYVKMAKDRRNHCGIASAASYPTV
Aspartyl aminopeptidase, sequence (Q8I2J3 whole entry): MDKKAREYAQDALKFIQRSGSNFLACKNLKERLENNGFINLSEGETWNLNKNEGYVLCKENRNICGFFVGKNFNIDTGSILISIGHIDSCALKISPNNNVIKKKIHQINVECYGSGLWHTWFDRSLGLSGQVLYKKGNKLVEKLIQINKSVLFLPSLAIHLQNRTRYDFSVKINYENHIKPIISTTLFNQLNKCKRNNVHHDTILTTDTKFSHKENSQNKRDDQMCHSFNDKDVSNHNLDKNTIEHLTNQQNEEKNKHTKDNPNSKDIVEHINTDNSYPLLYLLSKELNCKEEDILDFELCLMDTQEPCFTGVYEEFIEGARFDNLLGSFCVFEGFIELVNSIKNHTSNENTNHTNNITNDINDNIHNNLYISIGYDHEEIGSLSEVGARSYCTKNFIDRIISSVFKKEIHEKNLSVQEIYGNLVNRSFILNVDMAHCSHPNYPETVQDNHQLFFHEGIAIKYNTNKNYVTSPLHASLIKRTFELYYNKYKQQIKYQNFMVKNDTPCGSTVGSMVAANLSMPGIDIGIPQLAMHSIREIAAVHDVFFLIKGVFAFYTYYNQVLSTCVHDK

Structure (SMILES): COc1ccc(NS(=O)(=O)c2ccc(Cl)s2)cn1
IC50 [1]: 6.3 µM (active)
IC50 [2]: > 66 µM (inactive)
IC50 [3]: 4.54 µM (active)
IC50 [4]: 14.9 µM (active)

IC50 [5]: 5.8 µM (active)
Structure (SMILES): Cc1ccccc1CN1CCCCC1C(=O)N1CCN(c2ccc([N+](=O)[O-])cc2)CC1 (stereo not drawn)

Structure (SMILES): COc1ccc2[nH]c(Sc3c([N+](=O)[O-])nc(C)n3Cc3ccccc3)nc2c1
EC50 [6]: 8.94 µM (active)
EC50 [7]: 9.43 µM (active)
EC50 [8]: 8.34 µM (active)
IC50 [9]: > 80 µM (inactive)

Structure (SMILES): Oc1ccc(-c2cn3ccccc3n2)cc1O
IC50 [10]: 5.28 µM (active)
IC50 [11]: 2.56 µM (active)
EC50 [12]: 13.6 µM (active)
EC50 [13]: 25.3 µM (active)
AC50 [14]: 1.32 µM (active)
EC50 [15]: > 300 µM (not active)
IC50 [16]: > 59.6 µM (not active)
EC50 [17]: > 350 µM (not active)

Structure (SMILES): O=C(CN1C(=O)NC2(CCCCC2)C1=O)Oc1ccc2c(C(F)(F)F)cc(=O)oc2c1
IC50 [1]: 65.3 µM (not active)
IC50 [2]: > 66 µM (inactive)
IC50 [18]: > 49.7 µM (inactive)
IC50 [3]: 4.07 µM (active)
IC50 [4]: 38.3 µM (inactive)
IC50 [19]: 3.48 µM (active)
